Test: Evaluation of stability in liver microsome
Settings: mouse liver microsome 0.25 mg/mL, test compound 1 μM, 37° C., 30 minutes

SMILES	Remaining (%)
Nc1ncnc2c1c(C(=O)Nc1ccc(Oc3ccccc3)cc1)cn2C1CCCC1 [Compound 2 of Comparative Examples, 4-amino-7-cyclopentyl-N-(4-phenoxyphenyl)-7H-pyrrolo[2,3-d]pyrimidine-5-carboxamide, reference compound]	0%
COCc1ccc(NC(=O)c2cn(C(C)(C)C)c3ncnc(N)c23)cc1 [Example 2, 4-amino-7-(tert-butyl)-N-(4-(methoxymethyl)phenyl)-7H-pyrrolo[2,3-d]pyrimidine-5-carboxamide]	64%
COCc1ccc(NC(=O)c2cn(C(C)(C)C)c3ncnc(N)c23)cc1F [Example 30, 4-amino-7-(tert-butyl)-N-(3-fluoro-4-(methoxymethyl)phenyl)-7H-pyrrolo[2,3-d]pyrimidine-5-carboxamide]	54%
COCc1ccc(NC(=O)c2cn(C(C)(C)C)c3ncnc(N)c23)c(OC)c1 [Example 33, 4-amino-7-(tert-butyl)-N-(2-methoxy-4-(methoxymethyl)phenyl)-7H-pyrrolo[2,3-d]pyrimidine-5-carboxamide]	57%
[2H]C([2H])([2H])OCc1ccc(NC(=O)c2cn(C(C)(C)C)c3ncnc(N)c23)cc1 [Example 35, 4-amino-7-(tert-butyl)-N-(4-((methoxy-d3)-methyl)phenyl)-7H-pyrrolo[2,3-d]pyrimidine-5-carboxamide]	58%
COCc1ccc(NC(=O)c2cn(C(C)(C)CF)c3ncnc(N)c23)cc1F [Example 41, 4-amino-7-(1-fluoro-2-methylpropan-2-yl)-N-(3-fluoro-4-(methoxymethyl)phenyl)-7H-pyrrolo[2,3-d]pyrimidine-5-carboxamide]	56%
COCc1ccc(NC(=O)c2cn(C3(C(F)F)CC3)c3ncnc(N)c23)cc1 [Example 46, 4-amino-7-(1-(difluoromethyl)cyclopropyl)-N-(4-(methoxymethyl)phenyl)-7H-pyrrolo[2,3-d]pyrimidine-5-carboxamide]	65%
COCc1ccc(NC(=O)c2cn(C3(C)CC3)c3ncnc(N)c23)cc1F [Example 48, 4-amino-N-(3-fluoro-4-(methoxymethyl)phenyl)-7-(1-methylcyclopropyl)-7H-pyrrolo[2,3-d]pyrimidine-5-carboxamide]	58%
COCc1ccc(NC(=O)c2cn(C(C)(C)C(F)F)c3ncnc(N)c23)cc1 [Example 50, 4-amino-7-(1,1-difluoro-2-methylpropan-2-yl)-N-(4-(methoxymethyl)phenyl)-7H-pyrrolo[2,3-d]pyrimidine-5-carboxamide]	53%
CC(C)(C)n1cc(C(=O)Nc2ccc(-c3cc[nH]n3)cc2)c2c(N)ncnc21 [Example 80, N-(4-(1H-pyrazol-3-yl)phenyl)-4-amino-7-(tert-butyl)-7H-pyrrolo[2,3-d]pyrimidine-5-carboxamide]	50%

The remaining lines, values ahead:

Remaining (%)	SMILES
73%	COCc1ccc(NC(=O)c2cn(C3(C)CC3)c3ncnc(N)c23)cc1 [Example 36, 4-amino-N-(4-(methoxymethyl)phenyl)-7-(1-methylcyclopropyl)-7H-pyrrolo[2,3-d]pyrimidine-5-carboxamide]
66%	COCc1ccc(NC(=O)c2cn(C3(CF)CC3)c3ncnc(N)c23)cc1 [Example 45, 4-amino-7-(1-(fluoromethyl)cyclopropyl)-N-(4-(methoxymethyl)phenyl)-7H-pyrrolo[2,3-d]pyrimidine-5-carboxamide]
67%	COCc1ccc(NC(=O)c2cn(C3(C4CC4)CC3)c3ncnc(N)c23)cc1 [Example 49, 7-{[1,1-bi(cyclopropane)]-1-yl}-4-amino-N-(4-(methoxymethyl)phenyl)-7H-pyrrolo[2,3-d]pyrimidine-5-carboxamide]
56%	COCc1ccc(NC(=O)c2c(Br)n(C3(C)CC3)c3ncnc(N)c23)cc1 [Example 55, 4-amino-6-bromo-N-[4-(methoxymethyl)phenyl]-7-(1-methylcyclopropyl)-7H-pyrrolo[2,3-d]pyrimidine-5-carboxamide]
62%	COCc1ccc(NC(=O)c2c(Cl)n(C3(C)CC3)c3ncnc(N)c23)cc1 [Example 56, 4-amino-6-chloro-N-[4-(methoxymethyl)phenyl]-7-(1-methylcyclopropyl)-7H-pyrrolo[2,3-d]pyrimidine-5-carboxamide]
86%	COCc1ccc(NC(=O)c2c(OC)n(C3(C)CC3)c3ncnc(N)c23)cc1 [Example 57, 4-amino-6-methoxy-N-[4-(methoxymethyl)phenyl]-7-(1-methylcyclopropyl)-7H-pyrrolo[2,3-d]pyrimidine-5-carboxamide]
81%	COCc1ccc(NC(=O)c2c(C)n(C(C)(C)C)c3ncnc(N)c23)cc1 [Example 60, 4-amino-7-(tert-butyl)-N-(4-(methoxymethyl)phenyl)-6-methyl-7H-pyrrolo[2,3-d]pyrimidine-5-carboxamide]
81%	COCc1ccc(NC(=O)c2c(-c3cccnc3)n(C3(C)CC3)c3ncnc(N)c23)cc1 [Example 61, 4-amino-N-(4-(methoxymethyl)phenyl)-7-(1-methylcyclopropyl)-6-(pyridin-3-yl)-7H-pyrrolo[2,3-d]pyrimidine-5-carboxamide]
89%	COCc1ccc(NC(=O)c2c(C(C)=O)n(C3(C)CC3)c3ncnc(N)c23)cc1 [Example 64, 6-acetyl-4-amino-N-(4-(methoxymethyl)phenyl)-7-(1-methylcyclopropyl)-7H-pyrrolo[2,3-d]pyrimidine-5-carboxamide]
79%	C=Cc1c(C(=O)Nc2ccc(COC)cc2)c2c(N)ncnc2n1C1(C)CC1 [Example 65, 4-amino-N-(4-(methoxymethyl)phenyl)-7-(1-methylcyclopropyl)-6-vinyl-7H-pyrrolo[2,3-d]pyrimidine-5-carboxamide]
69%	COCc1ccc(NC(=O)c2c(F)n(C3(C)CC3)c3ncnc(N)c23)cc1 [Example 69, 4-amino-6-fluoro-N-(4-(methoxymethyl)phenyl)-7-(1-methylcyclopropyl)-7H-pyrrolo[2,3-d]pyrimidine-5-carboxamide]
66%	COCc1ccc(NC(=O)c2c(C#CCC(C)(C)O)n(C3(C)CC3)c3ncnc(N)c23)cc1 [Example 86, 4-amino-6-(4-hydroxy-4-methylpent-1-yn-1-yl)-N-[4-(methoxymethyl)phenyl]-7-(1-methylcyclopropyl)-7H-pyrrolo[2,3-d]pyrimidine-5-carboxamide]
63%	COCc1ccc(NC(=O)c2c(C#CC3CCOCC3)n(C3(C)CC3)c3ncnc(N)c23)cc1 [Example 87, 4-amino-N-[4-(methoxymethyl)phenyl]-7-(1-methylcyclopropyl)-6-((tetrahydro-2H-pyran-4-yl)ethynyl)-7H-pyrrolo[2,3-d]pyrimidine-5-carboxamide]
59%	COCc1ccc(NC(=O)c2c(C#CCN3CCCC3)n(C3(C)CC3)c3ncnc(N)c23)cc1 [Example 88, 4-amino-N-[4-(methoxymethyl)phenyl]-7-(1-methylcyclopropyl)-6-(3-(pyrrolidin-1-yl)prop-1-yn-1-yl)-7H-pyrrolo[2,3-d]pyrimidine-5-carboxamide]
